Assays:
Assay type in all cases: cell-based
Neurospora crassa = assay: standard paper-disc inhibition test, zone of inhibition, Neurospora crassa; conditions: in vitro
Text: (§1) The zones of inhibition, as determined in these tests, are shown below: […]

Candida albicans = assay: standard paper-disc inhibition test, zone of inhibition, Candida albicans; conditions: in vitro
Text: as §1

Staphylococcus aureus = assay: standard paper-disc inhibition test, zone of inhibition, Staphylococcus aureus; conditions: in vitro
Text: as §1

[1] = system: certain pathogenic organisms, particularly gram positive bacteria, fungi, and yeasts; assay: in vitro standard paper-disc inhibition tests (summary statement)
Text: as §1

Bacillus subtilis = assay: standard paper-disc inhibition test, zone of inhibition, Bacillus subtilis; conditions: in vitro
Text: as §1

[2] = system: Saccharomyces pastorianus; assay: standard paper-disc inhibition test, zone of inhibition, Saccharomyces pastorianus; conditions: in vitro
Text: as §1

Micrococcus luteus = assay: standard paper-disc inhibition test, zone of inhibition, Micrococcus luteus; conditions: in vitro
Text: as §1

[3] = Bacillus subtilis in minimal medium

Structure (SMILES)	Zone Diameter (Neurospora crassa)	Zone Diameter (Candida albicans) [mm]	Zone Diameter (Staphylococcus aureus)	growth inhibition of certain pathogenic organisms [1]	Zone Diameter (Bacillus subtilis; [3]) [mm]	Zone Diameter (Bacillus subtilis; Bacillus subtilis) [mm]	Zone Diameter [2] [mm]	Zone Diameter (Micrococcus luteus)
CC(=O)NC1C(OC2OC(CC(O)C3OC(n4ccc(=O)[nH]c4=O)C(O)C3O)C(O)C(O)C2NC(=O)/C=C/CCCCCCCCCCC(C)C)OC(CO)C(O)C1O (stereo not drawn) [Tunicamycin B]	10 mm	12	tr (trace (6.5-9 mm))	inhibit the growth	29	19	23	10 mm
CC(=O)NC1C(OC2OC(CC(O)C3OC(n4ccc(=O)[nH]c4=O)C(O)C3O)C(O)C(O)C2NC(=O)/C=C/CCCCCCCCCCCC(C)C)OC(CO)C(O)C1O (stereo not drawn) [Tunicamycin D]	tr (trace (6.5-9 mm))	11	tr (trace (6.5-9 mm))	inhibit the growth	27	19	13	tr (trace (6.5-9 mm))
CC(=O)NC1C(OC2OC(CC(O)C3OC(n4ccc(=O)[nH]c4=O)C(O)C3O)C(O)C(O)C2NC(=O)/C=C/CCCCCCCCCC(C)C)OC(CO)C(O)C1O (stereo not drawn) [Tunicamycin A]	10 mm	15	tr (trace (6.5-9 mm))	inhibit the growth	35	25	18	–
CC(=O)NC1C(OC2OC(CC(O)C3OC(n4ccc(=O)[nH]c4=O)C(O)C3O)C(O)C(O)C2NC(=O)/C=C/CCCCCCCCC(C)C)OC(CO)C(O)C1O (stereo not drawn) [Tunicamycin C]	10 mm	14	–	inhibit the growth	36	28	16	tr (trace (6.5-9 mm))

Source: patent US4237225A, “Process for preparing tunicamycin” (priority 1978, dated 1980)
